This is an account of results in paper PMC10407959 (Journal of medicinal chemistry, 2023).

SMILES strings stand for the structures. Like-named read-outs stand apart in the source and are kept apart here. Marks after values point to notes of the source that are not given here.

For data set [1] the following is noted: pH 7.4, pION method, determined by Jai Research Foundation; ref Wen et al. 5; cited from earlier work.
For a further data set, the target named is CYP2C19 (Homo sapiens, UniProt P33261). The settings on record: read-out: CYP2C19 (IC50); ref Wen et al. 5; cited from earlier work.
Chain of CYP2C19 (P33261 whole entry): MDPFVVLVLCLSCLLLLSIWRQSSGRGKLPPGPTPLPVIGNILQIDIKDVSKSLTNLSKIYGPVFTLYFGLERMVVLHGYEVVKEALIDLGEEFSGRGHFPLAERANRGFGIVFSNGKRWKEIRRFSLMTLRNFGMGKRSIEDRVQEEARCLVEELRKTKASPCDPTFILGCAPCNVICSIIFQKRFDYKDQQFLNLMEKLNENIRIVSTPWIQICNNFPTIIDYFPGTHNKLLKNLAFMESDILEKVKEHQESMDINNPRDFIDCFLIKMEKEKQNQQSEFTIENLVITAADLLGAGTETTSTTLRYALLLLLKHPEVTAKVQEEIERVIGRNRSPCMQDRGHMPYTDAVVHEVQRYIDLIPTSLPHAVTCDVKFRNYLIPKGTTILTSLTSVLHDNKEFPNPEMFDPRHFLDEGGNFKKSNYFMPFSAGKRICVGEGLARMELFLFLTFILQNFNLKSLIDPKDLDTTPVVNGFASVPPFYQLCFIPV
A further data set addresses hERG (Homo sapiens, UniProt Q12809). The settings on record: read-out: hERG, IC50; fluorescent dye binding method; ref Wen et al. 5; cited from earlier work. (The hERG channel carries a current that helps repolarise heart muscle cells.)
For the next data set, the target named is T1, CYP1A2 (Homo sapiens, UniProt P05177).
T1 sequence (P05177 1-516): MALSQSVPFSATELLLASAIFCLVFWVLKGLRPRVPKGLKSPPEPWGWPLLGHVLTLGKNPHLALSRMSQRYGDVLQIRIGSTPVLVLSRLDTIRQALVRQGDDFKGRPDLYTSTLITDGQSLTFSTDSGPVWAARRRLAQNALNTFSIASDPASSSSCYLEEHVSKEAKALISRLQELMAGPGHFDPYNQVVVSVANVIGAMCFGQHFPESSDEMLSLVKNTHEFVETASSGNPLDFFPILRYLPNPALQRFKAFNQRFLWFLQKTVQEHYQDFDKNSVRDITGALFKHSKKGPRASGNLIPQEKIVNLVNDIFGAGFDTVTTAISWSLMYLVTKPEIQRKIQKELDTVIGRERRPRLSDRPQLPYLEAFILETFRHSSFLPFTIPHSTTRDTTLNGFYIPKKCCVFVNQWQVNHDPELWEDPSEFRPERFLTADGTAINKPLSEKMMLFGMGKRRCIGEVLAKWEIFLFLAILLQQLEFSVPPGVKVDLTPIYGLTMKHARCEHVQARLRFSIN
To be noted: read-out: CYP1A2 (IC50); ref Wen et al. 5; cited from earlier work.

Another data set addresses CYP2D6 (Homo sapiens, UniProt P10635). To be noted: read-out: CYP2D6 (IC50); ref Wen et al. 5; cited from earlier work.
The conditions of data set [2]: rat, 3 mg/kg, i.p.; previous data; cited from earlier work.
The target of a further data set is CYP3A4 (Homo sapiens, UniProt P08684). The settings on record: read-out: CYP3A4 (IC50); ref Wen et al. 5; cited from earlier work.
Chain of CYP3A4 (P08684 whole entry): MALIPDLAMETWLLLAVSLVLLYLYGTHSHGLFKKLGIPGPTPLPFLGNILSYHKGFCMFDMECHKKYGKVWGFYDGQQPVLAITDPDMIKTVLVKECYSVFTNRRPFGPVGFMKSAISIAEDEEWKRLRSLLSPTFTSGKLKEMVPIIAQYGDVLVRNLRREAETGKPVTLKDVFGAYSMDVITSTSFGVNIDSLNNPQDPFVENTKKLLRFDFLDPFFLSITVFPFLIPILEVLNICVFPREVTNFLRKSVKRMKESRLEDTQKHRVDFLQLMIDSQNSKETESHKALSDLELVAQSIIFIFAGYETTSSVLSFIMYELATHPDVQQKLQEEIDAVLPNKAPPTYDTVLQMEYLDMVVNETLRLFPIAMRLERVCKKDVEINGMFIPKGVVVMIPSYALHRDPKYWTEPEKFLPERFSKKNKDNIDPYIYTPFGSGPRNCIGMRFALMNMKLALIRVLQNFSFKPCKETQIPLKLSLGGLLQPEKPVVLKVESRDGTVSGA
For data set [3] the following is noted: ref Wen et al. 5; cited from earlier work.
For data set [4] the following is noted: ref Wen et al. 5; cited from earlier work. This is another data set of the same source.
The conditions of data set [5]: rat (r), ref Wen et al. 5; cited from earlier work.
The target in another data set is T2, hP2Y14R (Homo sapiens, UniProt Q15391).
T2 sequence (Q15391 1-338): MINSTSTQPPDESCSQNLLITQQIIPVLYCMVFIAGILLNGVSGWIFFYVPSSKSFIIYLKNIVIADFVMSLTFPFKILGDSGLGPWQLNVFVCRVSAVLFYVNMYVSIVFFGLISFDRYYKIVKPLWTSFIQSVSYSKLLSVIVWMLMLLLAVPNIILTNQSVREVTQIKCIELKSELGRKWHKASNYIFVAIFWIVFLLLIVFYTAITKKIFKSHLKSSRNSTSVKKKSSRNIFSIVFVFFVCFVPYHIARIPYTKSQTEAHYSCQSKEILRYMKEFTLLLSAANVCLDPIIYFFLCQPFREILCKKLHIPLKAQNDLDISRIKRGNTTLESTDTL
Put plainly: cell-based.

In a further data set the target is CYP2C9 (Homo sapiens, UniProt P11712). To be noted: read-out: CYP2C9 (IC50); ref Wen et al. 5; cited from earlier work.
Chain of CYP2C9 (P11712 whole entry): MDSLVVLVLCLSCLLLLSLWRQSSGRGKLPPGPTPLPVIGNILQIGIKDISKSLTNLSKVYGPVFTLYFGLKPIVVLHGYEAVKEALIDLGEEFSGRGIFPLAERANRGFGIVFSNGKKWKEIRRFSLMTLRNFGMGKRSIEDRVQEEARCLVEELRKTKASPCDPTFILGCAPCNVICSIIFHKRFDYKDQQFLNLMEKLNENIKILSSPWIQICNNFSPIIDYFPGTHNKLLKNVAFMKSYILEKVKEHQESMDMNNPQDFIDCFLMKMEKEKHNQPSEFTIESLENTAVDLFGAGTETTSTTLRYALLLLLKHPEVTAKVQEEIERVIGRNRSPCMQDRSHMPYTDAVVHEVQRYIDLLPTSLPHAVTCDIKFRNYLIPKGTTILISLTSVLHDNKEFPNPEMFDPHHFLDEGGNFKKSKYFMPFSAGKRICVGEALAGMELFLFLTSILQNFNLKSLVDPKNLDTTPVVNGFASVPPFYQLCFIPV
For data set [6] the following is noted: mouse (m), ref Wen et al. 5; cited from earlier work.

Chain of CYP2D6 (P10635 whole entry): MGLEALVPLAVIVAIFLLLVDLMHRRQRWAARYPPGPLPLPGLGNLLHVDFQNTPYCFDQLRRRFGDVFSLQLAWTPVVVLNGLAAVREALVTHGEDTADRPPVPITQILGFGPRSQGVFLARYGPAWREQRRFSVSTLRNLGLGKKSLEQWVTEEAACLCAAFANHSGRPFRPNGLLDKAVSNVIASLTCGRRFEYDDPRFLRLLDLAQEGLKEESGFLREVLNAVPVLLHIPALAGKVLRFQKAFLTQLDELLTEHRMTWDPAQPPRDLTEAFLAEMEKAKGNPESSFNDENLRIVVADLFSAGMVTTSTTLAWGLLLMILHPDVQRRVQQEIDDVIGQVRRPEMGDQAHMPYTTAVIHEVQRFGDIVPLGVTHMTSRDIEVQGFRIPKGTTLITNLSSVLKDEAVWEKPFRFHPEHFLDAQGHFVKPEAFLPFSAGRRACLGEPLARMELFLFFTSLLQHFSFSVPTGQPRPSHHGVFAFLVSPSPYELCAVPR
Chain of hERG (Q12809 whole entry): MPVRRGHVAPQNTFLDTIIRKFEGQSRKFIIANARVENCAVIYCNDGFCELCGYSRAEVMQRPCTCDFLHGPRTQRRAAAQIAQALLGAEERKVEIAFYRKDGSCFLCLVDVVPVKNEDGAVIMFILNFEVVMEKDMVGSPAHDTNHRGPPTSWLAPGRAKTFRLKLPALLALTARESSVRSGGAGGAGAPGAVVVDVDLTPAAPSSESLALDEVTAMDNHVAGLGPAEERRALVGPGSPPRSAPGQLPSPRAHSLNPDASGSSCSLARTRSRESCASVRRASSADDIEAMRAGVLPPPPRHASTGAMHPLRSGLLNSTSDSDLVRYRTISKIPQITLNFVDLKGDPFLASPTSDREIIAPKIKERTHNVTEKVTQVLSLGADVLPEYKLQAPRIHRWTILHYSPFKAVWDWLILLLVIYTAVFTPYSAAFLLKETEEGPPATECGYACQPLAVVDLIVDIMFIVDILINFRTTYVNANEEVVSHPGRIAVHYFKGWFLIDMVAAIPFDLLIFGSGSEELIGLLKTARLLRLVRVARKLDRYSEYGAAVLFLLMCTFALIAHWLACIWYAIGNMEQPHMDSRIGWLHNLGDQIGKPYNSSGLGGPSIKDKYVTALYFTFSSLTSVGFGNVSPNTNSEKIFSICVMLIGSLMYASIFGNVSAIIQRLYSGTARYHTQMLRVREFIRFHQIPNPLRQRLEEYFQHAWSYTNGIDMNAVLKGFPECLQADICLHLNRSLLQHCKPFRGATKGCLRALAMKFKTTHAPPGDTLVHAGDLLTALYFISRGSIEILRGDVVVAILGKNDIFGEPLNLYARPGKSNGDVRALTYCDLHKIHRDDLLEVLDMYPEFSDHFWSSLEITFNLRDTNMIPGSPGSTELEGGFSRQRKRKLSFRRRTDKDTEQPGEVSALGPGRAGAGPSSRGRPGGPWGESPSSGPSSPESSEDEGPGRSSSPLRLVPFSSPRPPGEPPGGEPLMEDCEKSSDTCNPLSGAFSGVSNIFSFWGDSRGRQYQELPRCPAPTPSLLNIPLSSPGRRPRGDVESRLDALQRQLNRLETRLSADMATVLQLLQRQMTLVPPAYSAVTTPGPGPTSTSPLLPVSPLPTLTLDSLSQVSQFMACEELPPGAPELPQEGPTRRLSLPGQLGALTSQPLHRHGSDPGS

`O=C(O)c1cc(-c2ccc([C@H]3C[C@H]4C[C@@H]3CN4)cc2)c2ccc(-c3ccc(C(F)(F)F)cc3)cc2c1` [2b, 4-(4-((1S,4S,5S)-2-Azabicyclo[2.2.1]heptan-5-yl)phenyl)-7-(4-(trifluoromethyl)phenyl)-2-naphthoic Acid]: the “solubility, (μg/mL)” value in data set [1] is 1.90 (pH 7.4)^d μg/mL. The IC50 at CYP2C19, at hERG, on CYP1A2, on CYP2D6, at CYP3A4 and on CYP2C9 was more than 30 µM each time. Moreover, the bioavailability in [2] is given as 43 %F. The “simulated gastric fluid (% remaining at 120 min)” value in [3] is 100^a %. Besides, in data set [4], the “simulated intestinal fluid (% remaining at 120 min)” value was 99.1%. Further, the results for the “plasma stability (% remaining at 120 min)” value in data set [5] and in data set [6] were 82.8% and 100%, respectively. The Ki on hP2Y14R worked out at 0.00181 µM.

As a reminder, the IC50 is the point on the concentration scale where inhibition reaches its midpoint. By Ki is commonly meant a measure of affinity in units of concentration, obtained from inhibition or displacement. Low readings indicate higher affinity, high ones lower affinity.
